The source of these data is patent publication US7193127B1, “Codeinone reductase from alkaloid poppy” (priority 1999, dated 2007).

Entries after “also recorded” stand apart in the source; their conditions may differ. Read-outs that look alike come from different tables or passages of the source.

As usually defined, the Km is the substrate concentration at which the rate is half of its maximum.

For data set [1], the system named is codeinone reductase isoforms. Type of data set: biochemical, Papaver somniferum. The following applies: for serves as substrate in the reductive reaction: NADPH as cofactor, physiologically forward reaction. As to the method: The two other potential substrates for reduction, the 1,2-dehydroreticulinium ion and salutaridine (FIG. 1), or for the physiologically reverse reaction, salutaridinol and (R)-reticuline, were tested as substrates; with the codeinone reductase isoforms.
In order to test for a functional evolutionary relationship between isoflavonoid and alkaloid anabolism, codeinone reductase was analyzed for the ability to substitute for the reductase in the formation of 6-deoxychalcone in co-action with either native chalcone synthase or native stilbene synthase from Pinus sylvestris.

Data set [2] addresses COR1.2 (Papaver somniferum, UniProt Q9SQ69). Kind of data set: Km determination with purified recombinant codeinone reductase isoform COR1.2.
Description: (§1) The four codeinone reductase isoform-calmodulin-binding peptide fusion proteins were purified from E. coli lysates in one step with a calmodulin affinity column.
(§2) For all isoforms, the temperature optimum for reduction (physiologically forward reaction) was 28° C., for oxidation (physiologically reverse reaction) was 30° C., the pH optimum for reduction was 6.8 and for oxidation was 9.0.
(§3) For enzyme assays, single colonies were picked and grown in 3 ml Luria-Bertani medium containing 100 μg/ml ampicillin at 37° C. to an OD590 of 0.8. For protein purification, single colonies were picked and grown in 1 l Luria-Bertani medium containing 100 μg/ml ampicillin at 37° C. to an OD590 of 1.8. […] The bacterial pellet from a 3 ml culture was resuspended in 0.5 ml buffer and that from a one liter culture in 100 ml buffer. The cells were ruptured by sonication.
Data set [3] concerns the target COR1.3 (Papaver somniferum, UniProt Q9SQ68). Kind of data set: Km determination with purified recombinant codeinone reductase isoform COR1.3.
Description: as §1, §2, §3
The target of data set [4] is T1, reductase of the 6′-deoxychalcone synthase complex (Glycine max, UniProt P26690).
T1 sequence (P26690 1-315): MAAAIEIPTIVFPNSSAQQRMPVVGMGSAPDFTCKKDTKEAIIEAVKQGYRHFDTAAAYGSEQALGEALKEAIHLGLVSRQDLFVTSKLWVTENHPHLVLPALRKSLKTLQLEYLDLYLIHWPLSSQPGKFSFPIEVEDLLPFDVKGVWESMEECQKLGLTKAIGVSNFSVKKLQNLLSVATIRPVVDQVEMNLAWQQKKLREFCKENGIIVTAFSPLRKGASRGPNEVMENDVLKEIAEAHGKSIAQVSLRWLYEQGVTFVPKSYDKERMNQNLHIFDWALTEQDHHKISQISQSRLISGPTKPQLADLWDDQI
The data set can be described thus: Codeinone/codeine conversion by the reductase of the 6'-deoxychalcone synthase complex. Type of data set: biochemical, soybean. The following applies: in the presence of NADPH.

The subject of data set [5] is COc1ccc2c3c1O[C@H]1C(=O)C=C[C@H]4[C@@H](C2)N(C)CC[C@]314. The data set can be described thus: cells, lysate or membranes named.
Description: as §1, §2, §3
Setting [6] is: analogs and aldo/keto reductase family substrates, direction not given.
[7] abbreviates: NADP as cofactor, physiologically reverse reaction.

COR1.2, sequence (Q9SQ69 whole entry, canonical isoform): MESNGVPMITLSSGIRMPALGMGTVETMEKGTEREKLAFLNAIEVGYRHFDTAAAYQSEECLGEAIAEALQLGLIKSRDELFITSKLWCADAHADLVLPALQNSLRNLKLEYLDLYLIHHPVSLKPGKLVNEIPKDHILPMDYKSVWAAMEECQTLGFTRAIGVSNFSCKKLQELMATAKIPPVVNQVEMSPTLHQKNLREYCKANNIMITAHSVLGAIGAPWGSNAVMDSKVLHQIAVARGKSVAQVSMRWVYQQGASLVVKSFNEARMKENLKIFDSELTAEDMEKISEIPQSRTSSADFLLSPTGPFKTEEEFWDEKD
COR1.3, sequence (Q9SQ68 whole entry, canonical isoform): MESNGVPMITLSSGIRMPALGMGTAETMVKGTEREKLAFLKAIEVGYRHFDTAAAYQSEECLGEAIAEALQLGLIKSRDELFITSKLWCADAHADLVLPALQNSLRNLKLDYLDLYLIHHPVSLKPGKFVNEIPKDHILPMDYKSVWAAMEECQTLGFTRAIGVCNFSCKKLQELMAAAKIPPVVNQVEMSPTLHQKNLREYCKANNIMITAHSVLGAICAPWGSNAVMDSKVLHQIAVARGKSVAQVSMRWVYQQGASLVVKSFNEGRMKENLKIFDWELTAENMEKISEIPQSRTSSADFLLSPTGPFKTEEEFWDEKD

Regarding `COc1ccc(C[C@@H]2NCCc3cc(OC)c(O)cc32)cc1O` (mixture of isomers) [(S)-norreticuline, (S) and (R)-norreticuline], the “transformed by codeinone reductase (tested as substrate)” value (shortened to “transformed by codeinone reductase”) in data set [1] (setting [6]) is “inactive”.
On to `COc1ccc(CC2=[N+](C)CCc3cc(OC)c(O)cc32)cc1O` [1,2-dehydroreticulinium ion], for which the “serves as substrate in the reductive reaction” value in data set [1] was “None of these alkaloids served as substrate”.
For the compound `O=C1C=CCCC1` [2-cyclohexene-1-one], the “transformed by codeinone reductase” value in data set [1] (setting [6]) is recorded as “not transformed”.
As for `C[C@]12CC[C@H]3[C@@H](CC=C4C[C@@H](O)CC[C@@]43C)[C@@H]1CC[C@@H]2O` [5-androstene-3β,17β-diol], the “transformed by codeinone reductase” value in data set [1] is “not transformed”.
Take `C[C@]12CCC(=O)C[C@@H]1CC[C@@H]1[C@@H]2CC[C@]2(C)[C@@H](O)CC[C@@H]12` [5α-androstan-17β-ol-3-one]: the “transformed by codeinone reductase” value in data set [1] was “not transformed”.
On to `CC(C)CCC[C@@H](C)[C@H]1CC[C@H]2[C@@H]3CC[C@H]4C[C@@H](O)CC[C@]4(C)[C@H]3CC[C@]12C` [5α-cholestane-3β-ol], for which the “transformed by codeinone reductase” value in data set [1] (setting [6]) was “not transformed”.
On the same count and under the same terms, the same measure for `COc1ccc(C[C@H]2NCCc3cc(OC)c(O)cc32)cc1O` [(R)-norreticuline]: “inactive”.
On to `COc1ccc(C[C@@H]2c3cc(O)c(OC)cc3CCN2C)cc1O` [(R)-reticuline], for which the “serves as substrate in the oxidative reaction” value in data set [1] (setting [7]) is recorded as “None of these alkaloids served as substrate”.
With `COc1ccc(C[C@H]2c3cc(O)c(OC)cc3CCN2C)cc1O` [(S)-reticuline], the “transformed by codeinone reductase” value in data set [1] (setting [6]) was “inactive”.
On the same count and under the same terms, the same measure for `O=P(O)(O)OC[C@@H](O)[C@@H](O)[C@H](O)[C@@H](O)CO` [D-Sorbitol-6-phosphate]: “not transformed”; for `O=C[C@H](O)[C@@H](O)[C@H](O)CO` [D-xylose]: “not transformed”.
On to `NC(=O)C1=CN([C@@H]2O[C@H](COP(=O)(O)OP(=O)(O)OC[C@H]3O[C@@H](n4cnc5c(N)ncnc54)[C@H](O)[C@@H]3O)[C@@H](O)[C@H]2O)C=CC1` [NADH], for which the “ability to substitute for NADPH as cofactor” value in data set [1] (any of the isoforms) is given as “could not substitute for NADPH”.
Consider `NC(=O)C1=CN([C@@H]2O[C@H](COP(=O)(O)OP(=O)(O)OC[C@H]3O[C@@H](n4cnc5c(N)ncnc54)[C@H](OP(=O)(O)O)[C@@H]3O)[C@@H](O)[C@H]2O)C=CC1` [NADPH], for which the Km in data set [2] was determined as 220 µM.
Consider `NC(=O)c1ccc[n+]([C@@H]2O[C@H](COP(=O)([O-])OP(=O)(O)OC[C@H]3O[C@@H](n4cnc5c(N)ncnc54)[C@H](OP(=O)(O)O)[C@@H]3O)[C@@H](O)[C@H]2O)c1` [NADP], for which the Km is 58 µM in data set [2] and 45 µM in data set [3].
`COc1ccc2c3c1O[C@H]1C(=O)C=C[C@H]4[C@@H](C2)N(C)CC[C@]314` [codeinone]: the “reduction by the reductase of the 6′-deoxychalcone synthase complex” value in data set [4] is given as “could neither reduce”.
Consider `O=C1CCCCC1` [cyclohexanone], for which the “transformed by codeinone reductase” value in data set [1] (setting [6]) is listed as “not transformed”.
Take `COc1ccc2c3c1O[C@H]1[C@@H](O)CC[C@H]4[C@@H](C2)N(C)CC[C@@]341` [dihydrocodeine]: the “serves as substrate in the oxidative reaction” value in data set [1] (setting [7]) was “functions”.
Consider `COc1ccc2c3c1O[C@H]1C(=O)CC[C@H]4[C@@H](C2)N(C)CC[C@]314` [hydrocodone], for which the “serves as substrate in the reductive reaction” value in data set [1] is listed as “functions”.
As to `CN1CC[C@]23c4c5ccc(O)c4O[C@H]2[C@@H](O)C=C[C@H]3[C@H]1C5` [morphine], the “serves as substrate in the oxidative reaction” value in data set [1] is recorded as “functions”.
On to `CN1CC[C@]23c4c5ccc(O)c4O[C@H]2C(=O)C=C[C@H]3[C@H]1C5` [morphinone], for which the “serves as substrate in the reductive reaction” value in data set [1] is on record as “functions; also recorded: able to reduce”.
In the case of `COc1ccc2c3c1O[C@H]1[C@@H](O)C=C[C@H]4[C@@H](C2)NCC[C@@]341` [norcodeine], the “transformed by codeinone reductase” value in data set [1] was “inactive”.
As to `CCCCC[C@H](O)/C=C/[C@H]1C(=O)C[C@H](O)[C@@H]1CCCCCCC(=O)O` [prostaglandin D1], the “transformed by codeinone reductase” value in data set [1] (setting [6]) is reported as “not transformed”.
Take `COC1=C[C@]23CCN(C)[C@H](Cc4ccc(OC)c(O)c42)C3=CC1=O` [salutaridine]: the “serves as substrate in the reductive reaction” value in data set [1] was “None of these alkaloids served as substrate”.
Take `COC1=C[C@]23CCN(C)[C@H](Cc4ccc(OC)c(O)c42)C3=C[C@@H]1O` [salutaridinol]: in data set [1] (setting [7]), the “serves as substrate in the oxidative reaction” value is recorded as “None of these alkaloids served as substrate”.
In the case of COR1.2 (Papaver somniferum), in data set [5], the Km was 62 µM.
COR1.3 (Papaver somniferum): in data set [5], the Km was 48 µM.
